Tested on: 556581-035-R-J1-PDC complex spheroid growth
Experiment: Anticancer human tumor 556581-035-R-J1-PDC patient-derived ovarian carcinoma cell line growth inhibition [Asc]
Conditions: for viability, T/C: stronger effect = lower value
Procedure, shortened: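 Tumor cells were grown as complex spheroids with human endothelial cells (HUVEC) and human mesenchymal stem cells as stroma. Agents were tested alone and in combination, in half-log steps down from the clinical Cmax, or from 10 microM where Cmax was unknown.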
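Also: spheroids exposed to agents for 7 days before viability read.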

## Cc1c(S(C)(=O)=O)c(-c2cc(F)cc(N3CCN(c4ccc(NS(=O)(=O)c5ccc(NC(CCN6CCC(C(=O)OCCCP(=O)(O)O)CC6)CSc6ccccc6)c(S(=O)(=O)C(F)(F)F)c5)cc4)CC3)c2)c(-c2ccc(Cl)cc2)n1C(C)C (stereo unspecified)
Compound 0.1 µM
  viability, T/C: 80.6% [middle of 14 runs]
Compound 0.316 µM
  viability, T/C: 73.5% [middle of 14 runs]
Compound 1 µM
  viability, T/C: 66.1% [middle of 14 runs]
Compound 3.16 µM
  viability, T/C: 66.3% [middle of 14 runs]
Compound 10 µM
  viability, T/C: 61.9% [middle of 14 runs]
Compound alone, run of 10/11/2022
  IC50: > 10000 nM

## NC(=O)C(=Cn1cnc(-c2cc(C(F)(F)F)cc(C(F)(F)F)c2)n1)c1cncnc1 + CCN1C(C(=O)NC23CCC(C(=O)O)(CC2)CC3)C(c2cccc(Cl)c2F)C2(C(=O)Nc3cc(Cl)ccc32)C12CCCCC2
Curve of first compound, second compound 0.03 µM
  IC50: > 300 nM
Curve of first compound, second compound 0.0949 µM
  IC50: > 300 nM
Curve of first compound, second compound 0.3 µM
  IC50: > 300 nM
Curve of first compound, second compound 0.949 µM
  IC50: > 300 nM
Curve of first compound, second compound 3 µM
  IC50: > 300 nM
Second compound 0.03 µM, first compound 0.000949 µM
  viability, T/C: 81%
Second compound 0.03 µM, first compound 0.003 µM
  viability, T/C: 96.2%
Second compound 0.03 µM, first compound 0.00949 µM
  viability, T/C: 87.3%
Second compound 0.03 µM, first compound 0.03 µM
  viability, T/C: 83.1%
Second compound 0.03 µM, first compound 0.0949 µM
  viability, T/C: 86.6%
Second compound 0.03 µM, first compound 0.3 µM
  viability, T/C: 86.6%
Second compound 0.0949 µM, first compound 0.000949 µM
  viability, T/C: 97.6%
Second compound 0.0949 µM, first compound 0.003 µM
  viability, T/C: 99.7%
Second compound 0.0949 µM, first compound 0.00949 µM
  viability, T/C: 92.9%
Second compound 0.0949 µM, first compound 0.03 µM
  viability, T/C: 86.7%
Second compound 0.0949 µM, first compound 0.0949 µM
  viability, T/C: 90.8%
Second compound 0.0949 µM, first compound 0.3 µM
  viability, T/C: 101%
Second compound 0.3 µM, first compound 0.000949 µM
  viability, T/C: 103%
Second compound 0.3 µM, first compound 0.003 µM
  viability, T/C: 91.6%
Second compound 0.3 µM, first compound 0.00949 µM
  viability, T/C: 94.9%
Second compound 0.3 µM, first compound 0.03 µM
  viability, T/C: 87.3%
Second compound 0.3 µM, first compound 0.0949 µM
  viability, T/C: 86.7%
Second compound 0.3 µM, first compound 0.3 µM
  viability, T/C: 97.1%
Second compound 0.949 µM, first compound 0.000949 µM
  viability, T/C: 88.4%
Second compound 0.949 µM, first compound 0.003 µM
  viability, T/C: 108%
Second compound 0.949 µM, first compound 0.00949 µM
  viability, T/C: 92.5%
Second compound 0.949 µM, first compound 0.03 µM
  viability, T/C: 101%
Second compound 0.949 µM, first compound 0.0949 µM
  viability, T/C: 90%
Second compound 0.949 µM, first compound 0.3 µM
  viability, T/C: 91.6%
Second compound 3 µM, first compound 0.000949 µM
  viability, T/C: 83.5%
Second compound 3 µM, first compound 0.003 µM
  viability, T/C: 87.9%
Second compound 3 µM, first compound 0.00949 µM
  viability, T/C: 81.7%
Second compound 3 µM, first compound 0.03 µM
  viability, T/C: 87.7%
Second compound 3 µM, first compound 0.0949 µM
  viability, T/C: 78.3%
Second compound 3 µM, first compound 0.3 µM
  viability, T/C: 61.2%

## Cn1ncnc1[C@H]1c2n[nH]c(=O)c3cc(F)cc(c23)N[C@@H]1c1ccc(F)cc1 + Cc1c(S(C)(=O)=O)c(-c2cc(F)cc(N3CCN(c4ccc(NS(=O)(=O)c5ccc(NC(CCN6CCC(C(=O)OCCCP(=O)(O)O)CC6)CSc6ccccc6)c(S(=O)(=O)C(F)(F)F)c5)cc4)CC3)c2)c(-c2ccc(Cl)cc2)n1C(C)C
Curve of first compound, second compound 0.1 µM
  IC50: > 100 nM
Curve of first compound, second compound 0.316 µM
  IC50: > 100 nM
Curve of first compound, second compound 1 µM
  IC50: > 100 nM
Curve of first compound, second compound 3.16 µM
  IC50: > 100 nM
Curve of first compound, second compound 10 µM
  IC50: > 100 nM
Second compound 0.1 µM, first compound 0.000316 µM
  viability, T/C: 67.5%
Second compound 0.1 µM, first compound 0.001 µM
  viability, T/C: 88%
Second compound 0.1 µM, first compound 0.00316 µM
  viability, T/C: 94.8%
Second compound 0.1 µM, first compound 0.01 µM
  viability, T/C: 78%
Second compound 0.1 µM, first compound 0.0316 µM
  viability, T/C: 84.4%
Second compound 0.1 µM, first compound 0.1 µM
  viability, T/C: 77.2%
Second compound 0.316 µM, first compound 0.000316 µM
  viability, T/C: 84.9%
Second compound 0.316 µM, first compound 0.001 µM
  viability, T/C: 81.1%
Second compound 0.316 µM, first compound 0.00316 µM
  viability, T/C: 72%
Second compound 0.316 µM, first compound 0.01 µM
  viability, T/C: 66.6%
Second compound 0.316 µM, first compound 0.0316 µM
  viability, T/C: 79.9%
Second compound 0.316 µM, first compound 0.1 µM
  viability, T/C: 84%
Second compound 1 µM, first compound 0.000316 µM
  viability, T/C: 79.5%
Second compound 1 µM, first compound 0.001 µM
  viability, T/C: 84.2%
Second compound 1 µM, first compound 0.00316 µM
  viability, T/C: 78.3%
Second compound 1 µM, first compound 0.01 µM
  viability, T/C: 79.8%
Second compound 1 µM, first compound 0.0316 µM
  viability, T/C: 73.7%
Second compound 1 µM, first compound 0.1 µM
  viability, T/C: 72.1%
Second compound 3.16 µM, first compound 0.000316 µM
  viability, T/C: 74.3%
Second compound 3.16 µM, first compound 0.001 µM
  viability, T/C: 73.2%
Second compound 3.16 µM, first compound 0.00316 µM
  viability, T/C: 70.2%
Second compound 3.16 µM, first compound 0.01 µM
  viability, T/C: 72.9%
Second compound 3.16 µM, first compound 0.0316 µM
  viability, T/C: 64.4%
Second compound 3.16 µM, first compound 0.1 µM
  viability, T/C: 81.8%
Second compound 10 µM, first compound 0.000316 µM
  viability, T/C: 86.4%
Second compound 10 µM, first compound 0.001 µM
  viability, T/C: 69.2%
Second compound 10 µM, first compound 0.00316 µM
  viability, T/C: 66.5%
Second compound 10 µM, first compound 0.01 µM
  viability, T/C: 64.5%
Second compound 10 µM, first compound 0.0316 µM
  viability, T/C: 62.7%
Second compound 10 µM, first compound 0.1 µM
  viability, T/C: 64.9%
